Measured values from ChEMBL document CHEMBL5247610, “Discovery of 5-((4-(pyridin-3-yl)pyrimidin-2-yl)amino)-1H-indole-2-carboxamide derivatives as novel anti-cancer agents targeting Nur77” (Eur J Med Chem, 2022).
Calls of active or inactive are those of the source. The rule behind the calls is not given here.

Columns and labels:
[1] = test system: HeLa; experiment: Antiproliferative activity against human HeLa cells assessed as cell viability at 10 uM incubated for 48 hrs by MTT assay; assay type: functional; conditions: read-out: Activity
[2] = test system: HepG2; experiment: Induction of apoptosis in Nur77 overexpressing human HepG2 cells transfected with Myc-Nur77 assessed as induction of PARP cleavage at 5 uM incubated for 12 hrs by western blot analysis; assay type: functional, cell-based
[3] = test system: Huh-7; experiment: Antiproliferative activity against human Huh-7 cells assessed as reduction in cell viability incubated for 48 hrs by MTT assay; assay type: functional, cell-based; conditions: Huh-7, 48 h
[4] = test system: HepG2; experiment: Induction of apoptosis in human HepG2 cells assessed as late apoptotic cells at 10 uM incubated for 12 hrs by AnnexinV-FITC/PI staining based flow cytometry (reference value: 1.91%); assay type: functional
[5] = test system: HepG2; experiment: Induction of apoptosis in human HepG2 cells transfected with Nur77 siRNA assessed as late necrotic cells at 10 uM incubated for 12 hrs by AnnexinV-FITC/PI staining based flow cytometry (reference value: 0.3%); assay type: functional
[6] = test system: HepG2; experiment: Antitumor activity against human HepG2 cells xenografted in BALB/c nude mouse assessed as induction of nuclear shrinkage in tumor tissues at 50 mg/kg, ip administered once every day for 14 days by H and E staining based analysis; assay type: functional, organism-based; conditions: time 14.0 day
[7] = Selectivity index, ratio of IC50 for human L02 cells to IC50 for human SMMC-7721 cells by MTT assay; assay type: toxicity; conditions: L02 cells versus SMMC-7721 cells, read-out: Ratio IC50
[8] = test system: HepG2; experiment: Antitumor activity against human HepG2 cells xenografted in BALB/c nude mouse assessed as inhibition of tumor volume at 50 mg/kg, ip administered once every day for 14 days; assay type: functional, organism-based; conditions: time 14.0 day
[9] = Cytotoxicity against human L02 cells assessed as reduction in cell viability incubated for 48 hrs by MTT assay; assay type: toxicity, cell-based
[10] = test system: HepG2; experiment: Antiproliferative activity against human HepG2 cells assessed as cell viability at 10 uM incubated for 48 hrs by MTT assay; assay type: functional; conditions: read-out: Activity
[11] = Toxicity in BALB/c nude mouse xenografted with human HepG2 cells assessed as effect on lung damage at 50 mg/kg ip administered once every day for 14 days by H and E staining based analysis; assay type: organism-based; conditions: in vivo, 336 h, time 14 day
[12] = molecular target: T1, Peroxisome proliferator-activated receptor gamma (Homo sapiens) (UniProt P37231); experiment: Binding affinity to pBind-PPARgamma-LBD (unknown origin) transfected in HEK293T cells co-transfected with pG5-Luc at 5 uM incubated for 12 hrs by luciferase reporter gene assay; assay type: cell-based
T1 sequence (whole entry): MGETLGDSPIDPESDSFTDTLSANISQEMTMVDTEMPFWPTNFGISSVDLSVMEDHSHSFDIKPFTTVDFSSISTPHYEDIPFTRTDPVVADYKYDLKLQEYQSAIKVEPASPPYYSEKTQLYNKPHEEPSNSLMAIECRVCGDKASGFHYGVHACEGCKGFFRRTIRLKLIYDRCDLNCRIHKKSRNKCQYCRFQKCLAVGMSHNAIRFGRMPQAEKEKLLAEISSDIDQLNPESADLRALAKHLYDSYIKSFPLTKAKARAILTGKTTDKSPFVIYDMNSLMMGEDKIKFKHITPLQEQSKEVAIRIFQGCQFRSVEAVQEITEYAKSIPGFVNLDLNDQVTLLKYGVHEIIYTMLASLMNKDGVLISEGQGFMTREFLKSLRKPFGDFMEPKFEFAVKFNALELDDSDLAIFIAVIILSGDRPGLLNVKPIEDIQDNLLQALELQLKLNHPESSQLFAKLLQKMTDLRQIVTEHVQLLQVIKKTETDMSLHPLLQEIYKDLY

[13] = molecular target: T2, Nuclear receptor subfamily 4immunitygroup A member 1 (Homo sapiens, UniProt P22736); experiment: Modulation of Myc-Nur77 (unknown origin) transfected in HEK293T cells assessed as induction of Nur77 translocation from nucleus to cytoplasm at 10 uM incubated for 2 to 4 hrs by western blot analysis; assay type: cell-based; conditions: filed as modulator, time 2-4 hrs
T2 sequence (P22736 whole entry): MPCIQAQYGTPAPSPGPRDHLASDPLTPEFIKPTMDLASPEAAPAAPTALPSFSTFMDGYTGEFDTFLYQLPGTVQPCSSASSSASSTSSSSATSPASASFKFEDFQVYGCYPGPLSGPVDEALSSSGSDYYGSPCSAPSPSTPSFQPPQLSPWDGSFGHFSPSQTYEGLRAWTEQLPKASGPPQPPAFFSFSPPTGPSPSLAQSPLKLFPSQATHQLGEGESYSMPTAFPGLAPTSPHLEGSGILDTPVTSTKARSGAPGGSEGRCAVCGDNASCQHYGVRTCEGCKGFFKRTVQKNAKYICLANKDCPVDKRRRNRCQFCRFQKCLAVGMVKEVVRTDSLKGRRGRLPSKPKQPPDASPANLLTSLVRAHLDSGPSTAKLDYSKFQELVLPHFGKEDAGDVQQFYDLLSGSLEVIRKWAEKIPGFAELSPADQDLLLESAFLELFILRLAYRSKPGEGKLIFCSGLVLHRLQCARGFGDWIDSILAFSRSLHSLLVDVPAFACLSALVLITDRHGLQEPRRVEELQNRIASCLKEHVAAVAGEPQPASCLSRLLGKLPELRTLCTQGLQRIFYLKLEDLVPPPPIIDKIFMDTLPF

[14] = test system: HepG2; experiment: Induction of apoptosis in human HepG2 cells assessed as viable cells at 10 uM incubated for 12 hrs by AnnexinV-FITC/PI staining based flow cytometry (reference value: 96.32%); assay type: functional; conditions: read-out: Activity
[15] = Toxicity in BALB/c nude mouse xenografted with human HepG2 cells assessed as effect on spleen damage at 50 mg/kg ip administered once every day for 14 days by H and E staining based analysis; assay type: organism-based; conditions: in vivo, 336 h, time 14 day
[16] = test system: HepG2; experiment: Antitumor activity against human HepG2 cells xenografted in BALB/c nude mouse assessed as increase in cleaved caspase 3 expression in tumor tissues at 50 mg/kg, ip administered once every day for 14 days by immunohistochemistry analysis; assay type: functional, organism-based; conditions: time 14.0 day
[17] = test system: SMMC-7721; experiment: Antiproliferative activity against human SMMC-7721 cells assessed as reduction in cell viability incubated for 48 hrs by MTT assay; assay type: functional, cell-based; conditions: SMMC-7721, 48 h
[18] = molecular target: T2, Nuclear receptor subfamily 4immunitygroup A member 1; experiment: Binding affinity to pBind-Nur77-LBD (unknown origin) transfected in HEK293T cells co-transfected with pG5-Luc assessed as inhibition of Nur77 transcriptional activity by measuring inhibition of Nur77-driven luciferase activity incubated for 12 hrs by luciferase reporter gene assay; assay type: cell-based; conditions: filed as modulator, dose 1.25-5 µM
[19] = Selectivity index, ratio of IC50 for human L02 cells to IC50 for human MDA-MB-231 cells by MTT assay; assay type: toxicity; conditions: L02 cells versus MDA-MB-231 cells, read-out: Ratio IC50
[20] = test system: A549; experiment: Antiproliferative activity against human A549 cells assessed as reduction in cell viability incubated for 48 hrs by MTT assay; assay type: functional, cell-based; conditions: A549, 48 h
[21] = Selectivity index, ratio of IC50 for human L02 cells to IC50 for human A549 cells by MTT assay; assay type: toxicity; conditions: L02 cells versus A549 cells, read-out: Ratio IC50
[22] = molecular target: T2, Nuclear receptor subfamily 4immunitygroup A member 1; experiment: Binding affinity to Nur77 ligand binding domain (unknown origin) by fluorescence quenching assay
[23] = molecular target: T2, Nuclear receptor subfamily 4immunitygroup A member 1; experiment: Modulation of GFP-Nur77 (unknown origin) transfected in human HepG2 cells assessed as induction of Nur77 translocation from nucleus to mitochondria at 10 uM incubated for 3 hrs by confocal microscopy; conditions: filed as modulator

IC50 [3]: 3.58 µM
Activity [12]: inactive
Activity [13]: Active
IC50 [17]: 5.91 µM
Activity [18]: Dose-Dependent Effect
IC50 [20]: 6.63 µM
Kd [22]: 0.121 µM
Activity [23]: Active
SMILES: CN(C)CCCNC(=O)c1cc2cc(Nc3nccc(-c4cccnc4)n3)ccc2[nH]1
viability at 10 µM [1]: 19.4%
Activity [2]: Active
Activity [4]: 8.01%
Activity [5]: 0.75%
Activity [6]: Active
selectivity ratio [7]: 1.9
Activity [8]: Active
IC50 at 48 h [9]: 11.2 µM
viability at 10 µM [10]: 43.7%
Activity [11]: Non-Toxic
viability at 10 µM [14]: 72.7%
Activity [15]: Non-Toxic
Activity [16]: Active
selectivity ratio [19]: 3.47
selectivity ratio [21]: 1.7
